The values below come from publication PMC7155171, “Probing the Open Global Health Chemical Diversity Library for Multistage-Active Starting Points for Next-Generation Antimalarials” (ACS Infectious Diseases, 2020).

Structures are written as SMILES. Like-named read-outs stand apart in the source and are kept apart here. Some results are limits rather than exact numbers.

In assay [1] the test system is P. falciparum (NF54) stage V gametocytes. The assay is described as follows: Stage V gametocyte viability assay (MitoTracker Red CMXRos high content imaging). The class given is cell-based, Plasmodium falciparum. The settings on record: Plasmodium falciparum, NF54, 72 h; for inhibition at 2 µM: read-out: Stg V Gam primary screen: Inhibition % (2uM) (n=2).
The test system of assay [2] is HepG2-A16-CD81 hepatocytes. The assay is described as follows: cells. On the set-up: Uninfected hepatocyte viability, CellTiter-Glo luminescence. Particulars: sheet CDD Export 1;, cytotoxicity primary screen, read-out: Table S5. Liver stage reconfirmation data / HepG2 Cytotoxicity primary screen (2uM): % Inhibition. How it is done:
For the screen, 5 μL of HepG2-A16-CD81 hepatocytes containing 3 × 10^3 cells was seeded into 1536-well plates, which had been prespotted with 10 nL of library compound (2 μM final assay concentration (Figure 1)) and incubated overnight. For PbLuc infected plates, approximately 750 purified sporozoites in 5 μL of screening media were added to each well and incubated for 48 h before measuring luciferase activity. Compounds were tested for toxicity in parallel (see Methods) by measuring uninfected hepatocyte viability using CellTiter-Glo. […] This hit rate was slightly lower than expected for an agnostic library, which prompted us to rescreen the entire library at 10 μM. The PbLuc and cytotoxicity assay plates for this second replicate would be stamped in-house with 50 nL of library compound per well, using the same compound plates as the sexual stage screen described below. All the assay parameters were kept similar, except the change in concentration and shortening the time the compounds spent in each well prior to infection. […] All potential false positive effectors from the CellTiter-Glo assay were filtered from subsequent studies (Table S1). Naturally, there were more primary hits from the 10 μM than the 2 μM screen due to the higher testing concentration. For reconfirmation, we sourced all the hits that inhibited PbLuc at >70% and mean HepG2 at <50% in the 2 μM screen or PbLuc at >60% in both 2 and 10 μM screens and mean HepG2 at <50%. The resulting compounds were acquired as DMSO stocks and retested in the dose response (50–2.82 × 10^–4 μM or 25–141.13 × 10^–6 μM) against PbLuc and uninfected hepatocytes (Table S5). […] The majority of these compounds were weak inhibitors, although 18 submicromolar hits were found (Table S5).

Assay [3] deals with P. falciparum Dd2. The assay is described as follows: SYBR green I asexual blood stage proliferation assay (96 h). The settings on record: Plasmodium falciparum, DD2, 11-pt dose response, 96hr. The class given is cell-based, Plasmodium falciparum.
The test system of assay [4] is P. falciparum Dd2 (PfLuc) line expressing firefly luciferase, asexual blood stage. The assay is described as follows: microbe, parasite or virus in culture. The assay is classed as cell-based, Plasmodium falciparum. Particulars: Plasmodium falciparum.
Assay [5] shares this test system. The assay is described as follows: microbe, parasite or virus in culture. Particulars: Plasmodium falciparum, DD2, Erythrocyte; 8-point, 96 h, DMSO stocks; read-out: CDD P. falciparum Luciferase ABS 8-pt Reconfirmation Dose Response (96hr): IC50. On the set-up: species or system P. falciparum Dd2-luciferase in human red blood cells; PfLuc Dd2 asexual blood stage luciferase viability, BrightGlo luminescence, 96 h. How it is done: A transgenic line of Plasmodium falciparum (Dd2) constitutively expressing firefly luciferase was used for primary and reconfirmation screening. Cultures were maintained in complete media at 5% hematocrit (Human Whole Blood O+) and incubated at 37 °C in a low oxygen environment (3% O2, 5% CO2, and 92% N2). Culture health and parasitemia were tracked by Giemsa staining and bright field microscopy. Prior to dispensing parasites for primary screening, 20 nL of test compounds and 10 nL of control compounds (artemisinin and DMSO) were seeded per well using an Echo 550 acoustic dispenser (Labcyte) for final assay concentrations of 5 and 10 μM, respectively. When parasite cultures reached 3% to 8% parasitemia, as determined by a blood smear, infected blood was centrifuged at 800g for 5 min. […] From this blood mixture, 8 μL was dispensed per well in 1536-well, white, solid-bottom plates (789173-F, Greiner) using a MultiFlo FX Multi-Mode dispenser (BioTek). Plates were covered with a porous metal lid and incubated at 37 °C inside large plastic Ziploc bags filled with a blood gas mixture (3% O2, 5% CO2, and 92% N2) for 96 h. To prevent evaporation, a clean tray of water was included within each bag. Following incubation, BrightGlo was prepared by manufacturer specifications and dispensed at 2 μL per well using the MultiFlo dispenser. Plates were left for 20 min before being read with the ViewLux uHTS microplate imager (PerkinElmer) with a 90 s exposure time at the High Sensitivity Luminescence setting. Raw data were processed using GeneData (v12.0.5), whereby activity was normalized to negative minus positive controls. The correction of Runwise Pattern (Multiplicative) was applied, and compounds were considered hits when activity was reduced by ≥70%. […] Also, plates tested in 11-point dose response format were incubated at both 48 a The primary assay was run at a compound concentration of 5 μM. Briefly, 8 μL of an ABS parasite mixture (∼10,000 parasites) was dispensed into 1536-well plates previously spotted with 64,811 GHCDL compounds (the remaining 3642 library compounds arrived later and were evaluated separately). After a 96 h incubation, 2 μL of luciferin (BrightGlo) was added, and the luminescent signal was measured. Bioluminescence was normalized to DMSO (negative control) and artemisinin-treated (positive control) wells for the single point screens. For this primary screen, assay fidelity was determined on a per plate basis using both the Z′-factor and the potency variance of the positive (artemisinin) and negative (DMSO) controls. The mean Z′ value was 0.60 (range of 0.43–0.75), with only one plate falling below our ideal 0.5 threshold (Figure S1).

The mark [6] stands for this setting: read-out: Stg V Gam dose response IC50 (µM) (n=3), 10-point dose response, n=3, 72 h.
Setting [7] is: Sybr Green I, read-out: CDD P. falciparum Sybr Green I ABS 11-pt Reconfirmation Dose Response (96hr): IC50.
Setting [8] is: DD2, read-out: CDD P. falciparum Luciferase ABS 11-pt Reconfirmation Dose Response (48hr): IC50 (μM), 11-pt dose response, 48hr.
The mark [9] stands for this setting: DD2, 8-pt dose response, 96hr, read-out: CDD P. falciparum Luciferase ABS 8-pt Reconfirmation Dose Response (96hr): IC50.
Setting [10] is: DD2, 11-pt dose response, 48hr, read-out: CDD P. falciparum Luciferase ABS 11-pt Reconfirmation Dose Response (48hr): Maximum inhibition (%).
[11] abbreviates: DD2, 11-pt dose response, 96hr, read-out: CDD P. falciparum Luciferase ABS 11-pt Reconfirmation Dose Response (96hr): IC50.
Where [12] appears, read: DD2, 11-pt dose response, 96hr, read-out: CDD P. falciparum Luciferase ABS 11-pt Reconfirmation Dose Response (96hr): Maximum inhibition (%).
[13] abbreviates: DD2, 8-pt dose response, 96hr, read-out: P. falciparum Luciferase ABS 8-pt Reconfirmation Dose Response (96hr): IC50.
Where [14] appears, read: DD2, 8-pt dose response, 96hr, read-out: P. falciparum Luciferase ABS 8-pt Reconfirmation Dose Response (96hr): Maximum inhibition (%).
Where [15] appears, read: Sybr Green I, read-out: CDD P. falciparum Sybr Green I ABS 11-pt Reconfirmation Dose Response (96hr): Maximum inhibition (%).
Where [16] appears, read: DD2, 8-pt dose response, 96hr, read-out: CDD P. falciparum Luciferase ABS 8-pt Reconfirmation Dose Response (96hr): Maximum inhibition (%).

A word on the IC50: it is the midpoint of a concentration-inhibition curve. `COCCCNC1N=C(n2nc(C)cc2C)Nc2sc3c(c21)CCCC3` (stereo not drawn) [DDD01037467, COCCCNC1N=C(NC2=C1C1=C(CCCC1)S2)N1N=C(C)C=C1C]: the IC50 is 0.34 µM in assay [1] (read-out: GAM V IC50, stage V gametocytes, 72 h) and 0.344 µM in assay [1] (setting [6]). The inhibition at 2 µM in assay [2] was found to be 2.66%.

Consider `CCNc1ccnc(CN2CCCC2C(=O)Nc2nccs2)c1` (stereo not drawn) [DDD01068941], for which, in assay [2], the inhibition at 2 µM was 1.3%. The IC50 in assay [3] (setting [7]) was 1.65 µM; in assay [4] (setting [8]) it was 0.73 µM; in assay [4] (setting [9]), 0.48 µM; in assay [4] (setting [11]) it was 0.407 µM. Also, the Emax was found to be 92.3% in assay [4] (setting [10]) and 99.6% in assay [4] (setting [12]).

Turning to `Cc1cn2c(n1)C(CNCC1=Cc3ccccc3OC1)CCC2` (stereo not drawn) [DDD01073292, CC1=CN2CCCC(CNCC3=CC4=CC=CC=C4OC3)C2=N1], the IC50 is 1.31 µM in assay [1] (setting [6]); 2.32 µM in assay [3] (read-out: P. falciparum Sybr Green I ABS 11-pt Reconfirmation Dose Response (96hr): IC50); 4.19 µM in assay [4] (DD2, read-out: P. falciparum Luciferase ABS 11-pt Reconfirmation Dose Response (48hr): IC50, 11-pt dose response, 48hr); 1.65 µM in assay [4] (setting [13]); 1.84 µM in assay [4] (DD2, 11-pt dose response, 96hr, read-out: P. falciparum Luciferase ABS 11-pt Reconfirmation Dose Response (96hr): IC50). In addition, the inhibition at 2 µM in assay [1] is 66%; in assay [2], -0.92%. Besides, the Emax was 83.8% in assay [3] (read-out: P. falciparum Sybr Green I ABS 11-pt Reconfirmation Dose Response (96hr): Maximum inhibition (%)); 93% in assay [4] (setting [14]); 99.3% in assay [4] (DD2, 11-pt dose response, 96hr, read-out: P. falciparum Luciferase ABS 11-pt Reconfirmation Dose Response (96hr): Maximum inhibition (%)).

`COc1cccc(CNc2cc(C)nc(-c3ccncc3)n2)c1OC` [DDD01073393]: in assay [2], the inhibition at 2 µM is -4.44%. Moreover, the concentration for half-maximal inhibition (IC50) in assay [3] (setting [7]) was found to be 0.589 µM; in assay [4] (setting [8]), 4.09 µM; in assay [4] (setting [9]), 0.56 µM; in assay [4] (setting [11]), 0.0383 µM. The Emax in assay [3] (setting [15]) turned out to be 75.8%; in assay [4] (setting [16]), 94.5%; in assay [4] (setting [10]), 80%; in assay [4] (setting [12]), 98.2%.

Consider `O=C(CN1CCCC(c2ccn[nH]2)C1)Nc1nc2c(s1)CCCC2` (stereo not drawn) [DDD01079490], for which the inhibition at 2 µM in assay [2] was 7.13%. Also, the IC50 in assay [3] (setting [7]) was 0.81 µM; in assay [4] (setting [8]), 0.452 µM; in assay [4] (setting [9]), 0.28 µM; in assay [4] (setting [11]), 0.266 µM. For the same molecule, the Emax is 69.6% in assay [3] (setting [15]), 89.3% in assay [4] (setting [16]), 82.4% in assay [4] (setting [10]) and 97% in assay [4] (setting [12]).

Consider `c1cc(-c2n[nH]cc2-c2ccnc(N3CCCC3)n2)ccn1` [DDD01235828], for which the IC50 was 0.0618 µM in assay [5]; 0.037 µM in assay [3] (setting [7]); more than 4.16 µM in assay [4] (setting [8]); 0.167 µM in assay [4] (setting [11]); 0.17 µM in assay [4] (96 h incubation, Dd2 luciferase, read-out: 96 hour Pfluc IC50). In addition, the Emax in assay [3] (setting [15]) was found to be 79.4%; in assay [4] (setting [16]), 91%; in assay [4] (setting [10]), 53.9%; in assay [4] (setting [12]), 92%.

Turning to `CC1(c2ccccc2)CCCN(Cc2cncn2C2CCCC2)C1` (stereo not drawn) [DDD01246491, CC1(CCCN(CC2=CN=CN2C2CCCC2)C1)C1=CC=CC=C1], in assay [1] (setting [6]), the IC50 was found to be 2.65 µM. In addition, the inhibition at 2 µM in assay [1] was 55.4%; in assay [2], -6.73%.

Take `COc1c(C)cnc(CN2CCC(N(C)C(C)C(N)=O)CC2)c1C` (stereo not drawn) [DDD01301801]: the inhibition at 2 µM in assay [2] turned out to be 1.63%. In addition, the concentration for half-maximal inhibition (IC50) in assay [4] (setting [13]) worked out at 1.63 µM. Also, in assay [4] (setting [14]), the Emax came to 76.5%.

On to `Cc1ccoc1C(=O)NC1CCN(Cc2csc3c(F)cccc23)CC1` [DDD01304087], for which the inhibition at 2 µM in assay [2] is -2.96%.
